# Key:
# [1] = Model ecosystem: distribution, ecological magnification and Biodegradability Index
# From the text: After the amounts of the various metabolites have been calculated and a determination is made as to which of the metabolites are to be designated as "polar" and which are to be designated as "non-polar", a Biodegradability Index (amount of polar metabolites/amount of nonpolar metabolites) may be calculated. Remembering that nonpolar compounds, such as DDT are readily soluble in the fatty tissues, but are not readily soluble in water based solutions, and that the cell fluid is essentially a water based solution, the lower the Biodegradability Index, the lower the amount of biodegradability of the compound. The higher the amount of polarity, the greater the likelihood that the polar compound will dissolve in water, a very polar compound, and be eliminated from the cell.
# The environmental fate of any new pesticide is a factor of paramount importance in determining how and where it might be used. The behavior of ^3 H-α-trichloromethyl-p-ethoxybenzyl-p-ethoxyaniline has been studied by the model ecosystem technique following application of 5.0 mg. of labeled compound to Sorghum plants. A summary of
# metabolites from the organisms in the model ecosystem after 33 days were
# identified by cochromatography with standards of known constitution, by
# appropriate chromogenic reagents, and by high-resolution mass
# spectrometry. The data of Table IV indicate the O-dealkylation of
# Food Chem. 1 (1972). Ethoxychlor was found in the snail to 58.6 ppm and in the fish to 0.92 ppm, along with its ethylene and the mono- and bis-phenols formed by O-dealkylation. The ecological magnification (E.M.) of ethoxychlor, defined as the ratio of the parent material in the fish to the concentration in the water, was 1500-fold as compared with an E.M. of only 0.7-fold for the ethoxyaniline.
# Comparing the Biodegradability Indices (B.I.=total recovered polar metabolites/total recovered nonpolar metabolites) the values are 0.44 for ethoxychlor and 2.0 for ethoxyaniline.
# insects = conditions: background; cited from earlier work
# [2] = background; cited from earlier work
# [3] = background; cited from earlier work; remark: listed apart in the source
# [4] = test system: multifunction oxidase (MFO) enzymes; conditions: background; cited from earlier work
structure (smiles),measurement,setting,value
"Clc1ccc(C(c2ccc(Cl)cc2)C(Cl)(Cl)Cl)cc1 [DDT, 1,1,1 trichloro-2,2-bis(p-chlorophenyl)ethane]",ecological magnification (E.M.),[1]; ratio of parent material in fish to concentration in water,"84,000 fold"
same,Biodegradability Index (B.I.),[1]; total recovered polar/total recovered nonpolar metabolites,0.015
same,insecticidal activity (in words),insects,effective contact or residual insecticide
same,accumulation in animal tissues (in words),[2],accumulation in the fatty or lipid tissues of animals
same,lipid solubility (in words),[3],high lipid solubility
same,water solubility (in words),[3],very low water solubility
same,biodegradability (in words),[4],not biodegradable
same,susceptibility to MFO enzymes (in words),[4],do not function on DDT and its metabolic derivatives DDE and DDD

# Source: patent publication US3941842A, “P,P'-Disubstituted α-trichloromethylbenzylanilines” (priority 1972, dated 1976)
